According to patent publication US20210395305A1, “PEPTIDE FOR COSMETIC APPLICATION” (COLOSSEUM COMBINATORIAL CHEMISTRY CENTRE FOR TECHNOLOGY …, priority 2018, published 2021):
Where two headings read alike, the source gives them in different places. Ends that are not written are not given here.

Assays:
[1] = pKa by potentiometric pH-metric titration (Sirius T3); assay type: physicochemical; conditions: 0.15 M KCl solution (ISA water), 25±1° C.
Protocol: Experimental pKa as well as partition and distribution coefficients (log P and log D) were determined using an automated potentiometric titrator Sirius T3 (Sirius Analytical Instruments Ltd., East Sussex, UK) equipped with an Ag/AgCl double junction reference pH electrode, a Sirius D-PAS spectrometer and a turbidity sensing device. The pH electrode was calibrated titrimetrically in the pH range 1.8-12.2. An overhead stirrer was used and a temperature probe monitored the temperature during the course of the titration. The titration experiments were conducted in 0.15 M KCl solution (ISA water) under an argon atmosphere at a temperature of 25±1° C. All tests were performed using standardized 0.5 M KOH and 0.5 M HCl as titration reagents, for the partition coefficient tests a saturated Octanol in ISA water (5% of ISA water) was used as partition solvent. The pKa is determined by potentiometric method by pH-metric titration. The powder (around 0.5 mg) was dissolved in 1.5 ml of ISA water and the titration was performed in triplicate in the pH range 2.0-12.0. Log P is performed in triplicate by dissolving the powder (around 0.7 mg) in 1 ml of ISA water followed by pH metric titration in three different percentage of Octanol (generally 50%, 60%, 70%). The predicted pKa and the calculated log P for the instrumental model was performed using ACD/Percepta.

Elastin = Elastin in dermis by Elisa, single administration test; assay type: in vivo, rat
Protocol: (§1) Since the proteins of extracellular matrix collagen and elastin are involved in wound repair, skin aging and photo-aging, the effect of topical application of NGF1-14 on the levels of these two proteins was also analyzed.
(§2) Pro-Collagen I and Elastin were measured by using commercial Elisa kits, first in a single administration test, followed by a two weeks administration test.
(§3) A similar trend was observed by analyzing the two proteins: an increase of both pro-Collagen I (A) and Elastin (B) was detected in dermis of NGF1-14 treated rats at 0.1% dose, after sonication. The effect was less appreciable without applying the ultrasounds.
(§4) The protective action of NGF1-14 at 0.1% dose (P 0.1%) was evaluated on adult skin exposed to sub-erythematous levels of UV-B (MED=60 mJ/cm^2 twice a day) first in a single administration test (one day) then for three weeks before the treatment. This experimental procedure is also refereed as Photo-AGing model (PAG) since it induces structural and molecular changes occurring in aging.

[2] = biological target: T1, NGF receptors, TrkA and p75 (Rattus norvegicus, UniProt P35739); experiment: PC12-Luci c-fos promoter luciferase reporter assay; assay type: cell-based; conditions: for Ec50 (luminescence): PC12-Luci cells, 4 h at 37° C.
T1 construct: PC12-Luci cells, which endogenously express the NGF receptors, TrkA and p75; endogenous in cells; host or cells: PC12-Luci (rat pheochromocytoma clone B9 with the human c-fos promoter-luciferase reporter)
Source text: NGF treatment of rat pheochromocytoma cell line (PC12) results in c-fos mRNA and protein expression (J. Milbrandt, “Nerve growth factor rapidly induces c-fos mRNA in PC12 rat pheochromocytoma cells”, Proc Natl Acad Sci USA. 1986 July; 83(13):4789-93).
Starting from the work of Milbrandt, the Applicant monitored the activation of NFG receptor by using a clone (B9) stably transfected with the human c-fos promoter driving a luciferase reporter gene (PC12-Luci). This clone was used to set up a functional and quantitative assay for the characterization of the activity of NGF1-14.
The experiments were performed in PC12-Luci cells, which endogenously express the NGF receptors, TrkA and p75. Cells were maintained in the following complete culture medium comprising: • DMEM-F12 mixture (DMEM-F12 Glutamax; Life Technologies, GIBCO 10565-018) • 5% fetal bovine serum (FBS, Sigma Aldrich, F7524) • 10% horse serum (HS, Sigma Aldrich, H1138) • 1% penicillin-streptomycin (Life Technologies, GIBCO 15140-122)
For passaging, cells were gently washed with PBS and then incubated with trypsin for 5 min at room temperature or 37° C. Media was added and cells were resuspended (6-8 times).
Experiments were performed in sestuplicate, in black 96 well previously coated with 50 μg/ml collagen type I.
PC-12-Luci cells were seeded at 25000/well in 100 μl complete growth medium. 24h later, cell medium was carefully removed. Cells were then incubated with five concentrations (range 30 ng/ml-300 μg/ml, 1:10 serial dilutions) of NGF1-14 in standard Tyrode buffer with 0.1% BSA (50 μl/well) for 4 h at 37° C. The reference Negermin™ compound (by MimeTech Srl) has been added at 30 μg/ml, as reference. The stock solution of NGF1-14 was resuspended in sterile water, aliquoted and stored at −20° C. The stock solution of Negermin™ compound was resuspended in formulation buffer and stored at −20° C.
After the incubation, the basal level of luminescence was monitored for 30 seconds, by using EnSpire multimode plate reader (PerkinElmer). Then, a Triton-Luciferin mix was added to cells (50 μl/well), in a 1:1 ratio, leading to cell lysis. The obtained luminescence signal was monitored for other 60 seconds. […]
All luminescence values were normalized versus the basal level of luminescence. The response value was calculated as the mean of luminescence of the kinetic recorded.
Data were further analyzed (e.g. calculation of dose-response curves and EC50 values) and graphs plotted using GraphPad Prism (GraphPad Software, Inc.). […]

[3] = Skin distribution of NGF1-14 gel preparation, HPLC-UV of epidermis and dermis extracts; assay type: in vivo, rat; conditions: 0.1% gel, following LFS, compared to vehicle
Protocol: Distribution experiments were carried out to evaluate the ability of NGF1-14 gel preparation to penetrate the corneal stratus and reach the dermis, also by using sonophoresis-like strategies to facilitate skin penetration.
Tape-striping and ultrasounds were applied on the shaved dorsal area of female adult Sprague Dawley (SD) rats (10-12 months).
Low-Frequency Sonophoresis (LFS) was applied using a Sonics Ultrasonic Processor Model VCX 400 operating at a frequency of 20 KHz (tip displacement of about 2 cm, continuous mode) for 6 or 10 minutes, according to common clinical practices, since a prolonged use of sonophoresis is known to increase skin permeation but also to a considerable thermal damage, which is not appropriate for the use (Ref. International Journal of Health Sciences & Research 477 Vol. 5; Issue: 5; May 2015: A Review on Ultrasound Parameters and Methods of Application in Transdermal Drug Delivery).
Vehicle control and NGF1-14 gel preparation were administered on the skin portion pre-treated with LFS (S) or on shaved/tape striping skin (NS).
Treatment was repeated after two hours, and rats were sacrificed to dissect skin samples 2 hours after the second gel/NGF mimetic application. […]
Quantification of NGF 1-14 was determined by HPLC-UV, on a reverse phase C4 column, eluting with phosphate buffer (pH 7.4) and acetonitrile. […]

pro-Collagen I = experiment: Pro-Collagen I in dermis by Elisa, single administration test; assay type: in vivo, rat
Protocol: as §1, §2, §3, §4

normal human melanocytes = experiment: Tanning action: melanin content by ELISA; assay type: cell-based; conditions: cultured for a week, various concentrations
Protocol: The effect of topical application of NGF1-14 on the activation of melanocytes to produce melanin has been assessed.
According to already set up protocols, primary cell cultures of normal human melanocytes were seeded in Petri dishes and cultured for a week, with and without the presence of NGF 1-14 at various concentrations. The melanin content was measured by enzyme immunoassay ELISA.

TrkA = TrkA phosphorylation by Western Blot; assay type: in vivo, rat; conditions: dermis samples, with or without LFS, compared to vehicle controls; FIG. 4
[4] = without applying the ultrasounds

T1 sequence (P35739 33-799): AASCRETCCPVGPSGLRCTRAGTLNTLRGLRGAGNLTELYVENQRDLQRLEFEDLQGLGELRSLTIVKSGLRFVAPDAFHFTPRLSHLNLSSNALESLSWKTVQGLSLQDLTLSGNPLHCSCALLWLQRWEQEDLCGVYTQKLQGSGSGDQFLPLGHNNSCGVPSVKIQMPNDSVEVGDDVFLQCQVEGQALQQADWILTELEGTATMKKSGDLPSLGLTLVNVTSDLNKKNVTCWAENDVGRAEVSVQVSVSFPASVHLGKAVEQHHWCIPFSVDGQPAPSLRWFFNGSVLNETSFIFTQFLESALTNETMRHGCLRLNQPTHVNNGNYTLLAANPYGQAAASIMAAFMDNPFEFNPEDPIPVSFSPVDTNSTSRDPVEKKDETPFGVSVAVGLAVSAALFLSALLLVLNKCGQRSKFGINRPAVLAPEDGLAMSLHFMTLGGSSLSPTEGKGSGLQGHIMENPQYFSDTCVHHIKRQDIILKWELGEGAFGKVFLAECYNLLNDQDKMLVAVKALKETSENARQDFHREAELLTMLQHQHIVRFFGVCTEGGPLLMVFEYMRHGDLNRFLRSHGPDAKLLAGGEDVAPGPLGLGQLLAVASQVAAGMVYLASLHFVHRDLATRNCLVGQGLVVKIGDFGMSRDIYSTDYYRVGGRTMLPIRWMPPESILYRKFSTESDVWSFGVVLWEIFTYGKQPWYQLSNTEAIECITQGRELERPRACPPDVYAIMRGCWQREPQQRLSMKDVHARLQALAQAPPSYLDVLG

SSSHPIFHRGEFSV [NGF1-14, SSSHPIFHRGEFSV]
pKa ([1]; read-out: Acid pKa): 4.42 ± 0.05
pKa ([1]; read-out: Base pKa): 7.41 ± 0.07
Elastin in dermis (Elastin; 0.1% dose, after sonication, FIG. 5B): increase
Elastin in dermis (Elastin; [4]): slight increase
level of basal luminescence ([2]; 30 ng/ml-300 μg/ml, 4 h): increases the level of basal luminescence in a dose-dependent manner
in vitro potency compared with reference standard ([2]; Negermin™ compound added at 30 μg/ml): higher than reference standard Negermin™ compound, but lower than rhNGF
Ec50 (luminescence) [2]: 290.95 ng/mL
NGF1-14 level in epidermis ([3]; FIG. 3A): significant increase
NGF1-14 level in dermis ([3]; FIG. 3B): significant increase
pro-Collagen I in dermis (pro-Collagen I; 0.1% dose, after sonication, FIG. 5A): increase
Collagen I in dermis (pro-Collagen I; [4]): comparable to the positive control value
melanin content (normal human melanocytes): An increase was observed
phosphorylation levels of TrkA (TrkA): increased phosphorylation levels of TrkA

rhNGF: human recombinant NGF
Ec50 (luminescence) [2]: 1.4 ng/mL
